Laboratory results reported in US12421253B2 (Mirati Therapeutics, Inc., priority 2020, dated 2025).

Tests used:
[1] = target: T1, KRas^G12V (Homo sapiens, UniProt P01116, G12V); experiment: KRas binding assay (TR-FRET displacement of Cy5 labelled tracer)
T1 construct: […]; biotin (biotinylated); purchased Accelegan Inc

[2] = target: T2, KRas^G12D (Homo sapiens, UniProt P01116, G12D); experiment: as above
T2 construct: […]; biotin (biotinylated); purchased Accelegan Inc

[3] = target: T3, KRas^G12R (Homo sapiens, UniProt P01116, G12R); experiment: as above
T3 construct: […]; biotin (biotinylated); purchased Accelegan Inc

[4] = tested on: PSN1 cells, pERK; experiment: Inhibition of KRas phosphorylation of ERK (Cisbio HTRF Advanced pERK assay); type: cell-based; details: Homo sapiens, PSN1, 3 h, read-out: Inhibition (HTRF IC50 nM) of KRas-mediated Phosphorylation of ERK, PSN1
Protocol: (§1) Inhibition of KRas Phosphorylation of ERK (HTRF) by Exemplary Compounds of Formula (I)
(§2) Cisbio HTRF Advanced pERK Assay Catalog #64AERPEH
(§3) • Day 1: Seed 6,000 cells/well −25 μl/well in 384-well white solid bottom plate; RPM1_10% FBS. […] To harvest cells from flask using 0.05% Trypsin/EDTA solution. Add 10 mL of media to stop trypsinizing. Pipette the cells into a conical bottom 50 mL centrifuge tube and centrifuge 5 min×1000 rpm. • 2. Re-suspend the cell pellet in media, take a cell count, and then adjust the cell density using fresh media. • 3. Seed 6,000 cells into cell culture plate with […]. The • 4. Incubate cell plate overnight in a 37° C., 5% CO2 incubator. Compound Titrations • 1. Use Tecan to complete the compound addition. Compounds start from 10 uM top, 3-fold dilution, and 10 doses. The final DMSO concentration is 0.8%. Dispensed 0.2 uM Trametinib as Min control. • 2. Incubate cell plate for 3 hrs in the incubator. Detection with Cisbio pERK HTRF Kit • 1. Dilute 1 volume of 4× lysis buffer with 3 volumes of deionized water. Then, add 100× the blocking reagent. Keep lysis buffer on the ice. • 2. At the end of the compound treatment, flick-off the media. • 3. Add 35 μL of lysis buffer per well using a Multidrop Combi. Then place on a plate agitator shaking at 300 rpm at 4° C. for 40 mins. • 4. Make up the HTRF antibody buffer. For each assay plate, mix 50 μL of d2-conjugate antibody with 950 μL of detection buffer. Similarly, mix 50 μL of Cryptate antibody with 950 μL of detection buffer. Then mix the two diluted antibodies together. • 5. Dispense 3.4 μL the antibody buffer to wells of an empty assay plate. Seal the plate and centrifuge plate 30 sec×1000 rpm. • 6. At the end of the 4° C. lysis, centrifuge the lysate plates 3 mins×1500 rpm. • 7. Use the Bravo to transfer 13.6 μL of lysate from cell culture plate to assay plate. Then incubate assay plate for 2 hrs at room temperature. • 8. At the end of incubation, read plate on the Envision after centrifuging plate 30 sec×1000 rpm.

[5] = tested on: ASPC1 cells, pERK; experiment: as above; type: cell-based; details: Homo sapiens, ASPC1, 3 h, AsPC-1 cells, read-out: Inhibition (HTRF IC50 nM) of KRas-mediated Phosphorylation of ERK, AsPC-1
Protocol: as §1, §2, §3

[6] = tested on: H727 cells, pERK; experiment: as above; type: cell-based; details: Homo sapiens, NCI-H727, 3 h, read-out: Inhibition (HTRF IC50 nM) of KRas-mediated Phosphorylation of ERK, H727
Protocol: as §1, §2, §3

[7] = tested on: MKN1 cells, pERK; experiment: as above; type: cell-based; details: Homo sapiens, MKN-1, 3 h, read-out: Inhibition (HTRF IC50 nM) of KRas-mediated Phosphorylation of ERK, MKN1
Protocol: as §1, §2, §3

T1 sequence (P01116 1-169 isoform P01116-2 G12V): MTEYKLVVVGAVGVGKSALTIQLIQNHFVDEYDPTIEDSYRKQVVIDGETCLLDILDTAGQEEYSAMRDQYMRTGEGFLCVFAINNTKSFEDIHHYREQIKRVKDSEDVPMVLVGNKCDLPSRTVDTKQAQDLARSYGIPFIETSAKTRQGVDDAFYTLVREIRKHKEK
T3 sequence (P01116 1-169 isoform P01116-2 G12R): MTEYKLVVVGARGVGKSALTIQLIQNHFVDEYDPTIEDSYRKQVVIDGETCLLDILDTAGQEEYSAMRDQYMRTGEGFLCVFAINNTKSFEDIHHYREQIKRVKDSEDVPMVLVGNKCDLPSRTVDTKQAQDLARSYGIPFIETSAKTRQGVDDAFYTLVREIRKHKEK
T2 sequence (P01116 1-169 isoform P01116-2 G12D): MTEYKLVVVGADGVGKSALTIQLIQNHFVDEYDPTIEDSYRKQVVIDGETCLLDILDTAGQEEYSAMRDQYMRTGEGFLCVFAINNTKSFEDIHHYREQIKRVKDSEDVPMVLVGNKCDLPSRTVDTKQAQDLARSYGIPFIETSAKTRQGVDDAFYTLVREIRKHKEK

| IC50 [1] | IC50 [2] | IC50 [3] | IC50 [4] | IC50 [5] | IC50 [6] | IC50 [7] | SMILES |
| --- | --- | --- | --- | --- | --- | --- | --- |
| ≤ 2 nM | ≤ 2 nM | ≤ 2 nM | ≥ 10000 nM | 228 nM | 191 nM | 90 nM | CCc1c(F)ccc2cc(O)cc(N3CCc4c(nc(OC[C@@]56CCCN5C[C@H](F)C6)nc4N4CCCc5nc(N)sc5C4)C3)c12 [Example 181, 4-(4-(2-amino-7,8-dihydro-4H-thiazolo[5,4-c]azepin-5(6H)-yl)-2-(((2R,7aS)-2-fluorohexahydro-1H-pyrrolizin-7a-yl)methoxy)-5,6-dihydropyrido[3,4-d]pyrimidin-7(8H)-yl)-5-ethyl-6-fluoronaphthalen-2-ol] |
| 9 nM | 19 nM | 15 nM | ≥ 10000 nM | 1310 nM | 1380 nM | 479 nM | CCc1c(F)ccc2cc(O)cc(N3CCc4c(nc(OC[C@@]56CCCN5C[C@H](F)C6)nc4N4CC5CC(O)C5C4)C3)c12 (stereo partly drawn) [Example 177, 3-(7-(8-ethyl-7-fluoro-3-hydroxynaphthalen-1-yl)-2-(((2R,7aS)-2-fluorohexahydro-1H-pyrrolizin-7a-yl)methoxy)-5,6,7,8-tetrahydropyrido[3,4-d]pyrimidin-4-yl)-3-azabicyclo[3.2.0]heptan-6-ol] |
| 12 nM | 23 nM | 11 nM | ≥ 10000 nM | 770 nM | 796 nM | 652 nM | CCc1c(F)ccc2cc(O)cc(N3CCc4c(nc(OC[C@@]56CCCN5C[C@H](F)C6)nc4N4C[C@H]5C[C@@H](O)C[C@H]5C4)C3)c12 [Example 184, (3aR,5S,6aS)-2-(7-(8-ethyl-7-fluoro-3-hydroxynaphthalen-1-yl)-2-(((2R,7aS)-2-fluorohexahydro-1H-pyrrolizin-7a-yl)methoxy)-5,6,7,8-tetrahydropyrido[3,4-d]pyrimidin-4-yl)octahydrocyclopenta[c]pyrrol-5-ol] |
| 15 nM | 12 nM | 26 nM | ≥ 10000 nM | 2360 nM | 4380 nM | 929 nM | O=C1NCC12CCCN(c1nc(OC[C@@]34CCCN3C[C@H](F)C4)nc3c1CCN(c1cc(O)cc4ccc(F)c(Cl)c14)C3)C2 (stereo partly drawn) [Example 231, 6-(7-(8-chloro-7-fluoro-3-hydroxynaphthalen-1-yl)-2-(((2R,7aS)-2-fluorotetrahydro-1H-pyrrolizin-7a(5H)-yl)methoxy)-5,6,7,8-tetrahydropyrido[3,4-d]pyrimidin-4-yl)-2,6-diazaspiro[3.5]nonan-1-one] |
| 52 nM | 143 nM | 46 nM | ≥ 10000 nM | 5120 nM | 3720 nM | 1540 nM | CCc1c(F)ccc2cc(O)cc(N3CCc4c(nc(OC[C@@]56CCCN5C[C@H](F)C6)nc4N4C[C@H]5CC[C@@H](O)[C@H]5C4)C3)c12 [Example 185, (3aR,4R,6aS)-2-(7-(8-ethyl-7-fluoro-3-hydroxynaphthalen-1-yl)-2-(((2R,7aS)-2-fluorotetrahydro-1H-pyrrolizin-7a(5H)-yl)methoxy)-5,6,7,8-tetrahydropyrido[3,4-d]pyrimidin-4-yl)octahydrocyclopenta[c]pyrrol-4-ol] |
| ≤ 2 nM | ≤ 2 nM | ≤ 2 nM | 4100 nM | 668 nM | 616 nM | 29 nM | OCC1COCCN(c2nc(OC[C@@]34CCCN3C[C@H](F)C4)nc3c2CCN(c2cc(O)cc4ccc(F)c(Br)c24)C3)C1 (stereo partly drawn) [Example 220, 5-bromo-6-fluoro-4-(2-(((2R,7aS)-2-fluorohexahydro-1H-pyrrolizin-7a-yl)methoxy)-4-(6-(hydroxymethyl)-1,4-oxazepan-4-yl)-5,6-dihydropyrido[3,4-d]pyrimidin-7(8H)-yl)naphthalen-2-ol] |
| ≤ 2 nM | ≤ 2 nM | ≤ 2 nM | 7620 nM | 17 nM | 68 nM | 20 nM | CCc1c(F)ccc2cc(O)cc(N3CCc4c(nc(OC[C@@]56CCCN5C[C@H](F)C6)nc4N4CCCn5nncc5C4)C3)c12 [Example 178, 4-(4-(7,8-dihydro-4H-[1,2,3]triazolo[1,5-a][1,4]diazepin-5(6H)-yl)-2-(((2R,7aS)-2-fluorotetrahydro-1H-pyrrolizin-7a(5H)-yl)methoxy)-5,8-dihydropyrido[3,4-d]pyrimidin-7(6H)-yl)-5-ethyl-6-fluoronaphthalen-2-ol] |
| ≤ 2 nM | ≤ 2 nM | ≤ 2 nM | ≥ 10000 nM | 976 nM | 651 nM | 62 nM | Oc1cc(N2CCc3c(nc(OC[C@@]45CCCN4C[C@H](F)C5)nc3N3CCCC4(CC(O)C4)C3)C2)c2c(Br)c(F)ccc2c1 (stereo partly drawn) [Example 224, 6-(7-(8-bromo-7-fluoro-3-hydroxynaphthalen-1-yl)-2-(((2R,7aS)-2-fluorohexahydro-1H-pyrrolizin-7a-yl)methoxy)-5,6,7,8-tetrahydropyrido[3,4-d]pyrimidin-4-yl)-6-azaspiro[3.5]nonan-2-ol] |
| 8 nM | 17 nM | 20 nM | ≥ 10000 nM | 1110 nM | 373 nM | 1520 nM | CCc1c(F)ccc2cc(O)cc(N3CCc4c(nc(OC[C@@]56CCCN5C[C@H](F)C6)nc4N4CCCc5nn(C(=O)NC(C)C)cc5C4)C3)c12 [Example 195, 5-(7-(8-ethyl-7-fluoro-3-hydroxynaphthalen-1-yl)-2-(((2R,7aS)-2-fluorohexahydro-1H-pyrrolizin-7a-yl)methoxy)-5,6,7,8-tetrahydropyrido[3,4-d]pyrimidin-4-yl)-N-isopropyl-5,6,7,8-tetrahydropyrazolo[4,3-c]azepine-2(4H)-carboxamide] |
| 101 nM | 207 nM | 80 nM | ≥ 10000 nM | 5170 nM | 4790 nM | 1210 nM | CCc1c(F)ccc2cc(O)cc(N3CCc4c(nc(OC[C@@]56CCCN5C[C@H](F)C6)nc4N4CC5CC(O)CC(C5)C4)C3)c12 (stereo partly drawn) [Example 179, 3-(7-(8-ethyl-7-fluoro-3-hydroxynaphthalen-1-yl)-2-(((2R,7aS)-2-fluorohexahydro-1H-pyrrolizin-7a-yl)methoxy)-5,6,7,8-tetrahydropyrido[3,4-d]pyrimidin-4-yl)-3-azabicyclo[3.3.1]nonan-7-ol] |
| ≤ 2 nM | ≤ 2 nM | 7 nM | 3900 nM | 543 nM | 1350 nM | 101 nM | CCc1c(F)ccc2cc(O)cc(N3CCc4c(nc(OCC5(CN(C)C)CC5)nc4N4CCCC5(CNS(=O)(=O)N5)C4)C3)c12 (stereo not drawn) [Example 202, 7-(2-((1-((dimethylamino)methyl)cyclopropyl)methoxy)-7-(8-ethyl-7-fluoro-3-hydroxynaphthalen-1-yl)-5,6,7,8-tetrahydropyrido[3,4-d]pyrimidin-4-yl)-2-thia-1,3,7-triazaspiro[4.5]decane 2,2-dioxide] |
| 54 nM | 150 nM | 23 nM | ≥ 10000 nM | 1540 nM | 2920 nM | 498 nM | CCc1c(F)ccc2cc(O)cc(N3CCc4c(nc(OC[C@@]56CCCN5C[C@H](F)C6)nc4N4C[C@H]5C[C@H](O)C[C@H]5C4)C3)c12 [Example 183, (3aR,5R,6aS)-2-(7-(8-ethyl-7-fluoro-3-hydroxynaphthalen-1-yl)-2-(((2R,7aS)-2-fluorohexahydro-1H-pyrrolizin-7a-yl)methoxy)-5,6,7,8-tetrahydropyrido[3,4-d]pyrimidin-4-yl)octahydrocyclopenta[c]pyrrol-5-ol] |
